Assay results taken from ChEMBL document CHEMBL1122452, “Mitomycin C analogues with secondary amines at position 7” (J Med Chem, 1983).

What was measured:
P388 [1] = assay: Leukopenia % change in WBC at optimal dose on 3rd day.; assay type: functional, Mus musculus
P388 [2] = assay: Maximum % T/C against P-388 murine leukemia cells in mice.; assay type: functional, Mus musculus
P388 [3] = assay: Maximum % T/C with mitomycin C against P-388 murine leukemia cells in mice.; assay type: functional, Mus musculus
P388 [4] = assay: Minimum effective dose required for antitumor activity against P-388 murine leukemia cells in mice.; assay type: functional; conditions: Mus musculus, read-out: MED
[5] = E1/2 value related to the saturated calomal electrode.; assay type: ADME; parameters: unit not given here
P388 [6] = assay: Optimal dose required for antitumor activity against P-388 murine leukemia cells in mice.; assay type: functional, Mus musculus
B16 [7] = assay: Average weight change after ip administration of a dose of 2 mg/kg/day in B-16 melanoma in mice; assay type: functional, Mus musculus; conditions: route intraperitoneal
B16 [8] = assay: Average weight change after ip administration of a dose of 3 mg/kg/day in B-16 melanoma in mice; assay type: functional, Mus musculus; conditions: route intraperitoneal
B16 [9] = assay: Average weight change after ip administration of a dose of 5 mg/kg/day inB-16 melanoma in mice; assay type: functional, Mus musculus; conditions: route intraperitoneal
B16 [10] = assay: Tumor free survivors on 62nd day after ip administration of a dose of 2 mg/kg/day in B-16 melanoma in mice; out of 10; assay type: functional, Mus musculus; conditions: route intraperitoneal
B16 [11] = assay: Tumor free survivors on 62nd day after ip administration of a dose of 3 mg/kg/day in B-16 melanoma in mice; assay type: functional, Mus musculus; conditions: route intraperitoneal
B16 [12] = assay: Median survival time (% T/C) after ip administration of a dose of 2 mg/kg/day in B-16 melanoma in mice; assay type: functional, Mus musculus; conditions: route intraperitoneal
B16 [13] = assay: Median survival time (% T/C) after ip administration of a dose of 3 mg/kg/day in B-16 melanoma in mice; assay type: functional, Mus musculus; conditions: route intraperitoneal
B16 [14] = assay: Average weight change after ip administration of a dose of 1 mg/kg/day in B-16 melanoma in mice; assay type: functional, Mus musculus; conditions: route intraperitoneal
B16 [15] = assay: Average weight change after ip administration of a dose of 4 mg/kg/day in B-16 melanoma in mice; assay type: functional, Mus musculus; conditions: route intraperitoneal
B16 [16] = assay: Tumor free survivors on 62nd day after ip administration of a dose of 1 mg/kg/day in B-16 melanoma in mice; assay type: functional, Mus musculus; conditions: route intraperitoneal
B16 [17] = assay: Tumor free survivors on 62nd day after ip administration of a dose of 2 mg/kg/day in B-16 melanoma in mice; assay type: functional, Mus musculus; conditions: route intraperitoneal
B16 [18] = assay: Median survival time (% T/C) after ip administration of a dose of 1 mg/kg/day in B-16 melanoma in mice; assay type: functional, Mus musculus; conditions: route intraperitoneal
B16 [19] = assay: Average weight change after ip administration of a dose of 6 mg/kg/day in B-16 melanoma in mice; assay type: functional, Mus musculus; conditions: route intraperitoneal
B16 [20] = assay: Tumor free survivors on 62nd day after ip administration of a dose of 4 mg/kg/day in B-16 melanoma in mice; out of 10; assay type: functional, Mus musculus; conditions: route intraperitoneal
B16 [21] = assay: Tumor free survivors on 62nd day after ip administration of a dose of 6 mg/kg/day in B-16 melanoma in mice; out of 10; assay type: functional, Mus musculus; conditions: route intraperitoneal
B16 [22] = assay: Median survival time (% T/C) after ip administration of a dose of 4 mg/kg/day in B-16 melanoma in mice; assay type: functional, Mus musculus; conditions: route intraperitoneal
B16 [23] = assay: Median survival time (% T/C) after ip administration of a dose of 6 mg/kg/day in B-16 melanoma in mice; assay type: functional, Mus musculus; conditions: route intraperitoneal
B16 [24] = assay: Tumor free survivors on 62nd day after ip administration of a dose of 4 mg/kg/day in B-16 melanoma in mice; assay type: functional, Mus musculus; conditions: route intraperitoneal
B16 [25] = assay: Median survival time (% T/C) after ip administration of a dose of 4 mg/kg/day inB-16 melanoma in mice; assay type: functional, Mus musculus; conditions: route intraperitoneal

Compound	Change in WBC (P388 [1])	T/C (P388 [2])	T/C (P388 [3])	minimal effective dose (P388 [4])	E1/2 [5]	Dose (P388 [6])	also measured
COC12[C@@H]3N[C@@H]3CN1C1=C(C(=O)C(N3CCCC(O)C3)=C(C)C1=O)[C@@H]2COC(N)=O (some centres not stated)	55%	250%	161%	0.2 mg/kg	0.26	12.8 mg/kg	
COC12[C@@H]3N[C@@H]3CN1C1=C(C(=O)C(N3CCSC3)=C(C)C1=O)[C@@H]2COC(N)=O (some centres not stated)	69%	222%	183%	0.2 mg/kg	0.39	25.6 mg/kg	
COC12[C@@H]3N[C@@H]3CN1C1=C(C(=O)C(N3CC3C(N)=O)=C(C)C1=O)[C@@H]2COC(N)=O (some centres not stated)		206%	233%	0.8 mg/kg		6.4 mg/kg	
COC12[C@@H]3N[C@@H]3CN1C1=C(C(=O)C(N3CCOCC3)=C(C)C1=O)[C@@H]2COC(N)=O (some centres not stated)	82%	271%	224%	0.4 mg/kg	0.39	25.6 mg/kg	
COC12[C@@H]3N[C@@H]3CN1C1=C(C(=O)C(N3CCNCC3)=C(C)C1=O)[C@@H]2COC(N)=O (some centres not stated)		200%	288%	0.2 mg/kg	0.26	12.8 mg/kg	
CCN(CC)C1=C(C)C(=O)C2=C(C1=O)[C@H](COC(N)=O)C1(OC)[C@@H]3N[C@@H]3CN21 (some centres not stated)		222%	211%	1.6 mg/kg	0.26	25.6 mg/kg	
COC12[C@@H]3N[C@@H]3CN1C1=C(C(=O)C(N3CC3C#N)=C(C)C1=O)[C@@H]2COC(N)=O (some centres not stated)	2%	339%	228%	0.2 mg/kg	0.3	12.8 mg/kg	Average weight change (B16 [7]): 0 g; Average weight change (B16 [8]): 0 g; Average weight change (B16 [9]): -1.3 g; Cures (B16 [10]): 5; Cures (B16 [11]): 0; T/C (B16 [12]): 307%; T/C (B16 [13]): 65%
COC12[C@@H]3N[C@@H]3CN1C1=C(C(=O)C(N3CCCC3)=C(C)C1=O)[C@@H]2COC(N)=O (some centres not stated)	64%	>333%	161%	0.4 mg/kg	0.35	25.6 mg/kg	
CCOC(=O)C1CN1C1=C(C)C(=O)C2=C(C1=O)[C@H](COC(N)=O)C1(OC)[C@@H]3N[C@@H]3CN21 (some centres not stated)		133%	233%			12.8 mg/kg	
COC12[C@@H]3N[C@@H]3CN1C1=C(C(=O)C(N3CC3c3ccccc3)=C(C)C1=O)[C@@H]2COC(N)=O (some centres not stated)	38%	311%	200%	0.2 mg/kg		3.2 mg/kg	
COC12[C@@H]3N[C@@H]3CN1C1=C(C(=O)C(N3CC3)=C(C)C1=O)[C@@H]2COC(N)=O (some centres not stated)	11%	266%	300%	0.025 mg/kg	0.31	1.6 mg/kg	
COC(=O)C1CN1C1=C(C)C(=O)C2=C(C1=O)[C@H](COC(N)=O)C1(OC)[C@@H]3N[C@@H]3CN21 (some centres not stated)		147%	288%	1.6 mg/kg		6.4 mg/kg	
COC12[C@@H]3N[C@@H]3CN1C1=C(C(=O)C(N3CCC(N4CCCCC4)CC3)=C(C)C1=O)[C@@H]2COC(N)=O (some centres not stated)	29%	194%	200%	1.6 mg/kg	0.28	12.8 mg/kg	
COC12[C@@H]3N[C@@H]3CN1C1=C(C(=O)C(N3CCc4ccccc43)=C(C)C1=O)[C@@H]2COC(N)=O (some centres not stated)		150%	288%	0.8 mg/kg		12.8 mg/kg	
COC12[C@@H]3N[C@@H]3CN1C1=C(C(=O)C(N(C)C)=C(C)C1=O)[C@@H]2COC(N)=O (some centres not stated)		238%	325%	0.2 mg/kg		25.6 mg/kg	
COC12[C@@H]3N[C@@H]3CN1C1=C(C(=O)C(N(C)CCN(C)C)=C(C)C1=O)[C@@H]2COC(N)=O (some centres not stated)		267%	211%	0.8 mg/kg	0.33	25.6 mg/kg	
COC12[C@@H]3N[C@@H]3CN1C1=C(C(=O)C(N3CCSCC3)=C(C)C1=O)[C@@H]2COC(N)=O (some centres not stated)	44%	211%	178%	0.4 mg/kg		3.2 mg/kg	
COC12[C@@H]3N[C@@H]3CN1C1=C(C(=O)C(N3CC3C)=C(C)C1=O)[C@@H]2COC(N)=O (some centres not stated)	24%	233%	250%	0.1 mg/kg	0.32	3.2 mg/kg	
COC12[C@@H]3N[C@@H]3CN1C1=C(C(=O)C(N3CCN(c4ccc(C(C)=O)cc4)CC3)=C(C)C1=O)[C@@H]2COC(N)=O (some centres not stated)	40%	161%	200%	0.4 mg/kg		3.2 mg/kg	
COC12[C@@H]3N[C@@H]3CN1C1=C(C(=O)C(N3CCC(O)C3)=C(C)C1=O)[C@@H]2COC(N)=O (some centres not stated)		163%	219%	0.8 mg/kg	0.37	25.6 mg/kg	
COC12[C@@H]3N[C@@H]3CN1C1=C(C(=O)C(N3CCN(C)CC3)=C(C)C1=O)[C@@H]2COC(N)=O (some centres not stated)	34%	261%	183%	0.2 mg/kg	0.24	3.2 mg/kg	
COC12[C@@H]3N[C@@H]3CN1C1=C(C(=O)C(N3CCCCC3)=C(C)C1=O)[C@@H]2COC(N)=O (some centres not stated)		183%	322%	0.2 mg/kg	0.27	12.8 mg/kg	
COC12[C@@H]3N[C@@H]3CN1C1=C(C(=O)C(N3CC=CC3)=C(C)C1=O)[C@@H]2COC(N)=O (some centres not stated)	-13%	216%	268%	0.2 mg/kg		12.8 mg/kg	
COC12[C@@H]3N[C@@H]3CN1C1=C(C(=O)C(N3CCN(C=O)CC3)=C(C)C1=O)[C@@H]2COC(N)=O (some centres not stated)	16%	294%	224%	0.2 mg/kg	0.23	6.4 mg/kg	Average weight change (B16 [14]): 0 g; Average weight change (B16 [7]): -0.1 g; Average weight change (B16 [8]): -0.4 g; Average weight change (B16 [15]): -1 g; Cures (B16 [16]): 1; Cures (B16 [17]): 5; Cures (B16 [11]): 6; T/C (B16 [18]): 210%; T/C (B16 [12]): 275%; T/C (B16 [13]): 310%; Average weight change (B16 [19]): -0.7 g; Cures (B16 [20]): 6; Cures (B16 [21]): 2; T/C (B16 [22]): 310%; T/C (B16 [23]): 88%
COC12[C@@H]3N[C@@H]3CN1C1=C(C(=O)C(N3CCCC(C)C3)=C(C)C1=O)[C@@H]2COC(N)=O (some centres not stated)		238%	319%	0.2 mg/kg		25.6 mg/kg	
COC12[C@@H]3N[C@@H]3CN1C1=C(C(=O)C(N3CCC(O)(O)CC3)=C(C)C1=O)[C@@H]2COC(N)=O (some centres not stated)		231%	219%	0.2 mg/kg	0.28	25.6 mg/kg	
CO[C@@]12[C@H](COC(N)=O)C3=C(C(=O)C(C)=C(N)C3=O)N1C[C@@H]1N[C@@H]12 [MITOMYCIN]	-42%	161%		0.2 mg/kg	-0.45	3.2 mg/kg	Average weight change (B16 [14]): 0.2 g; Average weight change (B16 [7]): 0.5 g; Average weight change (B16 [8]): -0.1 g; Average weight change (B16 [15]): -0.1 g; Cures (B16 [16]): 0; Cures (B16 [17]): 0; Cures (B16 [11]): 0; Cures (B16 [24]): 0; T/C (B16 [18]): 155%; T/C (B16 [12]): 152%; T/C (B16 [13]): 165%; T/C (B16 [25]): 200%
